Reference: US20110212100A1, “METHODS FOR MODULATING DEVELOPMENT AND EXPANSION OF IL-17 EXPRESSING CELLS” (priority 2007, published 2011)

Tests used:
[1] = test system: Jurkat T cells; assay: Apoptosis of Jurkat T cells (Annexin V / PI); assay type: cell-based; conditions: 100 nM HF, 30 hours
Experimental: The non-specific cytoxicity of HF in both normal and transformed T-cells at high doses was evaluated. Anti-CD3/anti-CD28 activated primary T cells were harvested 6 days after activation and cultured in the presence of IL-2 with or without HF (100 nM). As a positive control, some T cells were cultured without IL-2 to induce apoptosis (FIG. 3A). Jurkat T cells, a transformed T cell leukemia line, were cultured in complete medium with or without HF (100 nM) as indicated (FIG. 3B). Both primary and Jurkat T cells were cultured for 30 hours and programmed cell death, i.e. apoptosis, was determined by Annexin V staining and propidium iodide (PI) uptake and cells were analyzed by flow cytometry. The percent of apoptotic T cells at each time point was plotted and was defined as Annexin V^+ PI^−. […] In further experiments, titrating amounts of HF were added to primary T cells and apoptosis was determine as above at the indicated time points. At 100 nM HF, but not 30 nM or lower, generalized T-cell apoptosis was observed (FIG. 3C).

[2] = test system: human memory T cells (CD4+ CD45RO+); assay: IL-17 and IFNγ expression by human memory T cells co-cultured with monocytes; assay type: cell-based; conditions: 100 nM HF, 6 days
Experimental: FIG. 10F is an illustration depicting purified primary human memory T cells (CD4^+ CD45RO^+) activated by anti-CD3/anti-CD28 coated beads in co-culture with CD14^+ monocytes and treated with DMSO, 100 nM HF or 100 nM MAZ1310. T cells were expanded for 6 days and intracellular cytokine expression was determined following restimuation with PMA plus ionomycin in the presence of brefeldin A.
Human T cell isolation and activation: Resting CD4^+ T cells were isolated from PBMC of healthy human donors using Dynal CD4 Positive Isolation Kit (Invitrogen, Carlsbad, Calif.) as previously described (M. Sundrud et al., Blood 106, 3440, 2005). CD4^+ cells were further purified to obtain memory T cells by staining with PE-conjugated anti-human CD45RO-PE antibodies (BD Biosciences), and sorting on a FACSAria cytometer (BD Biosciences). Following purification, cells were greater than 99% CD4^+ CD45RO^+. […] T cells were expanded in the presence HF or MAZ1310 as indicated for 6 days and intracellular cytokine expression was determined by intracellular staining.
Detection of cytokine production: Cytokines secreted into media supernatant were measured using the mouse Th1/Th2 cytometric bead array (CBA, BD Pharmingen) in accordance with manufacturers instructions. […]

[3] = test system: Asns, Gpt2, eIF4Ebp1 mRNA; assay: Quantitative real-time PCR of AAR-associated genes in T cells; assay type: cell-based, mouse; conditions: 10 nM HF, within 4 hours of T cell activation
Experimental: FIG. 12C is a graph depicting the results of quantitative real-time PCR performed on cDNA generated from resting naïve T cells (TN) or T cells activated for 4 hours in the presence of 10 nM MAZ1310 or 10 nM HF. Asns, Gpt2 or eIF4Ebp1 mRNA expression was normalized to Hprt levels and data are presented as mean values±SD in duplicate samples.
Quantitative real-time PCR: T cells were activated as described above, collected at the indicated times and pellets were flash-frozen in liquid nitrogen. Total RNA was obtained by RNeasy (Quiagen, Valencia, Calif.) column purification per manufacturers instructions. RORγt expression was determined after reverse transcription using the message sensor kit (Ambion, Austin, Tex.) per manufacturers instructions and taqman primers and probe as described elsewhere (I. Ivanov, et al., Cell 126, 1121, 2006). Sybrgreen quantitative real-time PCR was performed on T cell RNA samples following reverse transcription via SuperScript II first-strand cDNA synthesis kit (Invitrogen, Carlsbad, Calif.). All PCR data was collected on an iCycler thermal cycler (Biorad, Hercules, Calif.). Primer sequences used for detecting stress response genes are listed below.

[4] = test system: AAR pathway in splenocytes; assay: In vivo activation of the AAR pathway in splenocytes of HF-injected mice; set-up: species or system C57B/6 mice; conditions: 2.5 μg HF i.p., 6 hours post injection
Experimental: FIG. 20A is a graph depicting splenocytes from control- and HF-treated mice. C57B/6 mice were injected i.p. with vehicle (DMSO) or 2.5 μg HF. Spleens were harvested 6 hours post injection, red blood cells were lysed and total splenocytes were counted. Data are presented as mean cell counts±SD from 2 mice per group.
FIG. 20C is a graph depicting eIF2α expression in control- and HF-treated mice. Splenocytes from mice injected with DMSO or HF as above were harvested 6 hours post injection. Red blood cells were lysed and immunoblotting was performed on whole cell extracts for phosphorylated or total eIF2α as indicated.
FIG. 20D is a graph depicting the results of quantitative real-time PCR (qPCR) experiments performed for AAR-associated gene expression (Asns, Gpt2, eIF4Ebp1) using cDNA generated from splenocytes of mice injected with DMSO or HF as above. Expression of AAR-associated genes were normalized to Hprt levels and data are presented as mean relative expression from duplicate samples±SD.
Studies were conducted to evaluate the effect of HF treatment in mice.

[5] = test system: fibrosis; conditions: Pines et al.; cited from earlier work
[6] = test system: mice; conditions: IP, cited from earlier work

O=C(CC1NCCCC1O)Cn1cnc2cc(Br)c(Cl)cc2c1=O (racemic) [HF, 7-bromo-6-chloro-3-[3-(3-hydroxy-2-piperidinyl)-2-oxopropyl]-4(3H)-quinazolinone]
apoptosis (Annexin V+ PI−) of Jurkat T cells, in words [1]: caused significant apoptosis | IFNγ expression by human T cells, in words [2]: essentially unaffected | percentage of human T cells expressing IL-17 and amount of IL-17 produced, in words [2]: greatly reduced | Asns, Gpt2, eIF4Ebp1 mRNA (qPCR), in words [3]: induced | eIF2α phosphorylation and AAR-associated gene expression in splenocytes, in words [4]: rapidly activates eIF2α phosphorylation and AAR-associated gene expression | concentration range for inhibition of fibrosis in vitro [5]: 1 to 200 nM | radiation induced fibrosis, in words ([6]; 1-5 μg/mouse (Xavier et al.)): prevented radiation induced fibrosis but not normal healing of irradiated tissue | toxic effect in mice, in words ([6]; 1-5 μg/mouse): without evident toxic effect
